# Where a name gives a salt, the structure may show the parent alone.
# Key:
# alkaline phosphatase [1] = test: Kinetic rate of Thymol Blue release at 600 nm from substrate with serum alkaline phosphatase; assay type: biochemical; conditions: for absorbance rate at 600 nm: 0.1 ml Validate A, 25° C.
# Description: According to the test procedure of the subject invention, Thymol Blue Monophosphate is hydrolyzed by alkaline phosphatase to Thymol Blue in the presence of phosphorylatable diethanolamine buffer at pH 10.2. The color produced as a result thereof is proportional to enzyme present and the average change in absorbance per minute (ΔA/min) is determined at a wavelength of 600 nm.
# Other amino alcohol buffers which can be phosphorylated and which can be used in this test are, for example, 2-ethylaminoethanol, 3-dimethylamino-1, 2-propanediol, 2-methylaminoethanol, those listed by Elias Amador, Clinical Chemistry, 18, 94 (1972) and the like. The amino alcohol buffer is present in an amount sufficient to raise the pH of the reaction mixture to about 10.2. The magnesium activator is used in an amount sufficient to activate the alkaline phosphatase enzyme in the sample to be tested. The concentration of magnesium ion in the substrate reagent is about 1.5 millimoles per liter. The concentration of Thymol Blue Monophosphate in the reagent is not critical but must be sufficient to permit a kinetic reaction to proceed over a period of time without the substrate being exhausted. The preferred concentration of this material is between 1 and 3 millimoles per liter. The serum sample to be tested is contacted with the substrate reagent at a given temperature which may be from about 22° to about 40° C. but preferably at 30° C. or 37° C. While the temperature affects the rate of reaction, the particular temperature used, within the limits of the stability of the sample, is not critical hereto. The average change in absorbance per minute (ΔA/min) at 600 nm is then determined in a spectrophotometer capable of reading absorbance at 600 nm and maintaining constant temperature in the cuvet compartment. By definition, one unit of alkaline phosphatase activity is the amount of enzyme that will hydrolyze one micromole of Thymol Blue Monophosphate to Thymol Blue in one minute at 30° C. The enzyme activity is calculated by the following formula: [formula] where: U/liter =units of enzyme activity per liter at 30° C.
# [2] = Storage stability of substrate / reagent (absorbance at 600 nm, TLC); assay type: physicochemical
# alkaline phosphatase [3] = target: T1, alkaline phosphatase (Homo sapiens, UniProt P05186); test: Serum Alkaline Phosphatase End Point Assay; assay type: biochemical; conditions: 1 ml reagent + 0.1 ml serum sample, 10 minutes at 37° C., stopped with NaOH/Na2CO3
# T1 construct: from tissue; host or cells: serum
# T1 sequence (P05186 18-501 limits assumed): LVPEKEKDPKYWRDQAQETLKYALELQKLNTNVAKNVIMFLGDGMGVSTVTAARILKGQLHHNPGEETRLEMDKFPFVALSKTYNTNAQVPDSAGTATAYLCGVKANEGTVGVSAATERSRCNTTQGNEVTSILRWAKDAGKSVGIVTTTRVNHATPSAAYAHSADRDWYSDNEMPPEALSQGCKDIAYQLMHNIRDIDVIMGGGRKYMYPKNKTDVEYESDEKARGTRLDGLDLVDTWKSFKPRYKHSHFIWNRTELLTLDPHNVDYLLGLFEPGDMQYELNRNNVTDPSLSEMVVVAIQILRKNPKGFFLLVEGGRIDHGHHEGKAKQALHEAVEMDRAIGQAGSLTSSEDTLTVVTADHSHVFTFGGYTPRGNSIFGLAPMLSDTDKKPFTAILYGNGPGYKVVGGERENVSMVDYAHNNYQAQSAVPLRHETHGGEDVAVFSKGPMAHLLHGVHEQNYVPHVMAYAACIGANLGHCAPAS
# Description: If so desired an end-point procedure may be employed for determination of serum alkaline phosphatase activity employing Thymol Blue Monophosphate as the substrate. In this instance, the test serum sample is added to the diethanolamine buffered Thymol Blue Monophosphate substrate solution and the reaction is terminated after 10 minutes time by addition of an alkaline reagent such as, for example, 0.1M NaOH and 0.1M Na2 CO3. The absorbance of the sample is read at 600 nm and the enzyme activity is determined from a standard curve prepared from a Thymol Blue standard. The standard curve is prepared by measuring absorbance of dilutions of a known standard and plotting the measured absorbance against the calculated enzyme activity in units per liter.
# A substrate for measurement of alkaline phosphatase by the end-point method prepared identical to that of example XVI. One ml of the reagent was placed in a suitable 10 ml tube for measurement of the test specimen and one ml of the reagent was placed in a second tube for measurement of the reagent blank. […] The reagent blank solution was used to set the spectrophotometer at 0 absorption and the specimen tube was then measured and found to have an absorption of 0.329 at 600 nm. From a standard curve constructed from known concentrations of Thymol Blue an activity of alkaline phosphatase of 38 U/liter was determined.
# acid phosphatase = test: Acid Phosphatase - End Point Assay; assay type: biochemical; conditions: 1.2 mmol/liter substrate, 20 minutes 37° C.
# Description: An end-point procedure may be employed for determination of acid phosphatase activity employing Thymol Blue Monophosphate as the substrate. In this instance, the test serum sample is added to a Thymol Blue Monophosphate solution buffered to a pH of about 5 and the reaction is terminated by addition of an alkaline reagent after 20 minutes reaction time. The absorbance of the sample is then read at 600 nm and the acid phosphatase enzyme activity is determined from a standard curve prepared from a Thymol Blue standard as described above.
# A reagent was prepared containing 1.2 mmol/liter of Thymol Blue Monophosphate, 0.05 M Citrate buffer pH 5.0, and 0.1 % non inonic detergent, Tergitol NPX (Union Carbide Corporation).
# One ml of this substrate reagent solution was placed in each of two test tubes which were warmed to 37° C. for 5 minutes. To one of the test tubes was added 0.2 ml of a serum sample containing an elevated level of acid phosphatase. The mixture was then permitted to stand at 37° C. for 20 minutes at which time 3.0 mls of alkali reagent (0.1 m Na2 CO3 + 0.1M NaOH) was added to stop the reaction. […]
# The absorption of each solution was measured at 600 nm against distilled water. […] From standard curve, the acid phosphatase activity of the serum was calculated to be 6.5 U/liter.
# [4] = Solubility and physical properties; assay type: physicochemical
# [5] = substrate (not freeze-dried) in DEA buffer
smiles,measurement,setting,value
"Cc1cc(O)c(C(C)C)cc1C1(c2cc(C(C)C)c(OP(=O)(O)O)cc2C)OS(=O)(=O)c2ccccc21 (stereo not drawn) [I, Thymol Blue Monophosphate, Sodium Salt Solution]",rate of reaction at 600 nm,"alkaline phosphatase [1]; 2 ml working reagent (DEA buffer pH 10.2) + 50 μl Validate A control serum, 30° C.",0.0308 min⁻¹
"Cc1cc(O)c(C(C)C)cc1C1(c2cc(C(C)C)c(OP(=O)(O)O)cc2C)OS(=O)(=O)c2ccccc21 (stereo not drawn) [II, Thymol Blue Monophosphate (AMPD Salt)]",performance as substrate for alkaline phosphatase (release of Thymol Blue),"alkaline phosphatase [1]; pH 10.2 diethanolamine buffer with magnesium chloride, sera containing alkaline phosphatase",performed as a substrate for alkaline phosphatase
"Cc1cc(O)c(C(C)C)cc1C1(c2cc(C(C)C)c(OP(=O)(O)O)cc2C)OS(=O)(=O)c2ccccc21 (stereo not drawn) [III, Phosphorylated Thymol Blue]",absorbance rate (ΔA/min.) at 600 nm,"alkaline phosphatase [1]; 2 mg solid in 2.9 ml diethanolamine buffer pH 10.2, 0.1 ml Validate A",0.0180 min⁻¹
same,absorbance rate (ΔA/min.) at 600 nm,"alkaline phosphatase [1]; 5 mg sample in diethanolamine buffer pH 10.2, 0.1 ml Validate A",0.028 min⁻¹
"Cc1cc(O)c(C(C)C)cc1C1(c2cc(C(C)C)c(OP(=O)(O)O)cc2C)OS(=O)(=O)c2ccccc21 (stereo not drawn) [IV, Thymol Blue Monophosphate in Diethanolamine Buffer]",rate at 600 nm,"alkaline phosphatase [1]; 2.9 ml test volume in 1.0M DEA buffer pH 10.2, 0.1 ml Lederzyme Control Sera, 30° C.",0.037 min⁻¹
same,"absorbance at 600 nm of buffered substrate, initial","[2]; 2.9 ml test volume, 1.0M DEA buffer pH 10.2, fresh",0.131
same,frozen buffered substrate after storage (absorbance),"[2]; frozen, 6 months",remained unchanged
same,activity toward alkaline phosphatase after storage,[2]; refrigerated at 2° to 8° C. over 6 months,remained unchanged
same,absorbance at 600 nm of buffered substrate after storage,"[2]; refrigerated at 2° to 8° C. over 6 months, increase due to gradual hydrolysis",approximately 0.550
Cc1cc(O)c(C(C)C)cc1C1(c2cc(C(C)C)c(OP(=O)(O)O)cc2C)OS(=O)(=O)c2ccccc21 (stereo not drawn) [Thymol Blue Monophosphate],change in absorbance (ΔA/min) at 600 nm,"alkaline phosphatase [1]; 2 ml substrate 1.5 mmol/liter, DEA buffer pH 10.2, MgCl2, 0.05 ml serum to be tested, 30° C.",0.022
same,absorption at 600 nm of specimen tube against reagent blank,alkaline phosphatase [3],0.329
same,absorption at 600 nm of test serum sample,"acid phosphatase; citrate buffer pH 5.0, 0.2 ml serum with elevated acid phosphatase, against distilled water",0.364
same,net increase in absorption over blank,"acid phosphatase; citrate buffer pH 5.0, 0.2 ml serum",0.253 absorption units
"Cc1cc(O)c(C(C)C)cc1C1(c2cc(C(C)C)c(OP(=O)(O)O)cc2C)OS(=O)(=O)c2ccccc21 (stereo not drawn) [VIII, Sodium Thymol Blue Monophosphate Solution]",rate at 600 nm,"alkaline phosphatase [1]; 1 ml substrate solution + 1 ml 0.6 M DEA buffer pH 10.2, 0.1 ml Validate A, temperature not given",0.0758 min⁻¹
same,solubility in absolute ethanol,[4]; yellow orange solid,slightly soluble
same,solubility in water,[4]; yellow orange solid,readily soluble
"Cc1cc(O)c(C(C)C)cc1C1(c2cc(C(C)C)c(OP(=O)(O)O)cc2C)OS(=O)(=O)c2ccccc21 (stereo not drawn) [X, Thymol Blue Monophosphate Cyclohexylammonium Salt]",absorbance rate at 600 nm,alkaline phosphatase [1]; [5],0.0427 min⁻¹
same,stability of solid by TLC,[2]; after one month standing at room temperature,Thymol Blue was detected on TLC indicating decomposition
same,hygroscopicity,[4]; orange solid product,hygroscopic
"Cc1cc(O)c(C(C)C)cc1C1(c2cc(C(C)C)c(OP(=O)(O)O)cc2C)OS(=O)(=O)c2ccccc21 (stereo not drawn) [XI, Thymol Blue Monophosphate Sodium Salt Solution]",absorbance rate at 600 nm,alkaline phosphatase [1]; [5],0.0577 min⁻¹
"Cc1cc(O)c(C(C)C)cc1C1(c2cc(C(C)C)c(OP(=O)(O)O)cc2C)OS(=O)(=O)c2ccccc21 (stereo not drawn) [XII, Thymol Blue Monophosphate Ammonium Salt]",absorbance rate at 600 nm,"alkaline phosphatase [1]; substrate (not freeze-dried) in DEA buffer, Monophosphate Ammonium Salt",0.0486 min⁻¹
"Cc1cc(O)c(C(C)C)cc1C1(c2cc(C(C)C)c(OP(=O)(O)O)cc2C)OS(=O)(=O)c2ccccc21 (stereo not drawn) [XIII, Thymol Blue Monophosphate, Tris (hydroxymethyl)aminomethane Salt]",substrate activity with alkaline phosphatase,"alkaline phosphatase [1]; aqueous solution of the salt, clear amber liquid",potent substrate activity
same,absorbance rate at 600 nm,alkaline phosphatase [1]; freeze-dried reagent reconstituted,0.0552 min⁻¹
same,absorbance rate at 600 nm,alkaline phosphatase [1]; [5],0.0600 min⁻¹

# Reference: patent US4045290A, “Diagnostic method and compounds for use therewith” (Princeton Biomedix Incorporated, priority 1976, dated 1977)
